Source: patent US9932314B2, “Pyrazole compounds and their use as T-type calcium channel blockers” (IDORSIA PHARMACEUTICALS LTD, priority 2015, dated 2018)

Biological target: T1, voltage-dependent T-type calcium channel subunit alpha-1G (Cav3.2) (Homo sapiens, UniProt O95180)
T1 construct: expressed in transfected cells; host or cells: HEK293
Experiment: FLIPR calcium flux assay, HEK293 cells recombinantly expressing Cav3.2
Format: cell-based
Conditions: Cav3.2-channel, Fluo-4-AM, 3 min incubation, stimulation with 10 mM CaCl2
Experimental: In Vitro Methods—Measurement of Calcium Channel Flux by Means of FLIPR Assays.
HEK293 cells recombinantly expressing either voltage-dependent T-type calcium channel subunit […] (Cav3.2) or voltage-dependent L-type calcium channel subunit alpha-1C (Cav1.2) are assayed for calcium flux using the calcium indicator dye Fluo-4-AM (Molecular Devices) and FLIPR technology (Fluorometric Imaging Plate Reader, Molecular Devices) (Xie X, Van Deusen A L, Vitko I, Babu D A, Davies L A, Huynh N, Cheng H, Yang N, Barrett P Q, Perez-Reyes E. Validation of high throughput screening assays against three subtypes of Ca(v)3 T-type channels using molecular and pharmacologic approaches. Assay and Drug Development Technologies 2007, 5(2), 191-203). The HEK293 cells recombinantly expressing Cav3.2 are maintained in DMEM growth medium (Life Technologies) supplemented with 10% Fetal Bovine Serum (FBS), 100 U/ml penicilin (Life Technologies), 100 μg/ml streptomycin (Life Technologies) and 1 mg/ml G418 (Life Technologies). HEK293 cells recombinantly expressing Cav1.2 are maintained in DMEM growth medium (Life technologies) supplemented with 10% FBS, 0.1 mg/ml G418 (Life Technologies), 0.1 mg/ml hygromycin (Life Technologies) and 40 ug/ml zeocin (Life Technologies).
The seeded plates are incubated overnight at 37° C.
The cells are then washed three times with assay buffer (HBSS 1×; 0.375 g/L NaHCO3; 20 mM Hepes; 1% FBS; pH 7.4) and allowed to rest in 50 μl of wash buffer for 30 minutes.
Stock solutions of test compounds are prepared to a concentration of 10 mM in DMSO. For the Cav3.2 assay, serial dilutions of the compounds are prepared in TEAC buffer (100 mM tetraethylammonium chloride; 20 mM Hepes; 2.5 mM CaCl2; 5 mM KCl; 1 mM MgCl2; 1% FBS; pH 7.2), for the Cav1.2 assay serial dilutions are prepared in assay buffer. […] The compounds are incubated with the cells for 3 minutes and Ca2+ entry is stimulated by adding either CaCl2 to a final concentration of 10 mM (Cav3.2 assay) or by adding KCl to a final concentration of 20 mM (Cav1.2 assay). The kinetics of fluorescence increase are recorded for every well and the area under the fluorescence trace for every compound concentration is used to generate inhibition curves using non-linear regression sigmoidal concentration-response curve analysis with in-house software.

T1 sequence (O95180 whole entry): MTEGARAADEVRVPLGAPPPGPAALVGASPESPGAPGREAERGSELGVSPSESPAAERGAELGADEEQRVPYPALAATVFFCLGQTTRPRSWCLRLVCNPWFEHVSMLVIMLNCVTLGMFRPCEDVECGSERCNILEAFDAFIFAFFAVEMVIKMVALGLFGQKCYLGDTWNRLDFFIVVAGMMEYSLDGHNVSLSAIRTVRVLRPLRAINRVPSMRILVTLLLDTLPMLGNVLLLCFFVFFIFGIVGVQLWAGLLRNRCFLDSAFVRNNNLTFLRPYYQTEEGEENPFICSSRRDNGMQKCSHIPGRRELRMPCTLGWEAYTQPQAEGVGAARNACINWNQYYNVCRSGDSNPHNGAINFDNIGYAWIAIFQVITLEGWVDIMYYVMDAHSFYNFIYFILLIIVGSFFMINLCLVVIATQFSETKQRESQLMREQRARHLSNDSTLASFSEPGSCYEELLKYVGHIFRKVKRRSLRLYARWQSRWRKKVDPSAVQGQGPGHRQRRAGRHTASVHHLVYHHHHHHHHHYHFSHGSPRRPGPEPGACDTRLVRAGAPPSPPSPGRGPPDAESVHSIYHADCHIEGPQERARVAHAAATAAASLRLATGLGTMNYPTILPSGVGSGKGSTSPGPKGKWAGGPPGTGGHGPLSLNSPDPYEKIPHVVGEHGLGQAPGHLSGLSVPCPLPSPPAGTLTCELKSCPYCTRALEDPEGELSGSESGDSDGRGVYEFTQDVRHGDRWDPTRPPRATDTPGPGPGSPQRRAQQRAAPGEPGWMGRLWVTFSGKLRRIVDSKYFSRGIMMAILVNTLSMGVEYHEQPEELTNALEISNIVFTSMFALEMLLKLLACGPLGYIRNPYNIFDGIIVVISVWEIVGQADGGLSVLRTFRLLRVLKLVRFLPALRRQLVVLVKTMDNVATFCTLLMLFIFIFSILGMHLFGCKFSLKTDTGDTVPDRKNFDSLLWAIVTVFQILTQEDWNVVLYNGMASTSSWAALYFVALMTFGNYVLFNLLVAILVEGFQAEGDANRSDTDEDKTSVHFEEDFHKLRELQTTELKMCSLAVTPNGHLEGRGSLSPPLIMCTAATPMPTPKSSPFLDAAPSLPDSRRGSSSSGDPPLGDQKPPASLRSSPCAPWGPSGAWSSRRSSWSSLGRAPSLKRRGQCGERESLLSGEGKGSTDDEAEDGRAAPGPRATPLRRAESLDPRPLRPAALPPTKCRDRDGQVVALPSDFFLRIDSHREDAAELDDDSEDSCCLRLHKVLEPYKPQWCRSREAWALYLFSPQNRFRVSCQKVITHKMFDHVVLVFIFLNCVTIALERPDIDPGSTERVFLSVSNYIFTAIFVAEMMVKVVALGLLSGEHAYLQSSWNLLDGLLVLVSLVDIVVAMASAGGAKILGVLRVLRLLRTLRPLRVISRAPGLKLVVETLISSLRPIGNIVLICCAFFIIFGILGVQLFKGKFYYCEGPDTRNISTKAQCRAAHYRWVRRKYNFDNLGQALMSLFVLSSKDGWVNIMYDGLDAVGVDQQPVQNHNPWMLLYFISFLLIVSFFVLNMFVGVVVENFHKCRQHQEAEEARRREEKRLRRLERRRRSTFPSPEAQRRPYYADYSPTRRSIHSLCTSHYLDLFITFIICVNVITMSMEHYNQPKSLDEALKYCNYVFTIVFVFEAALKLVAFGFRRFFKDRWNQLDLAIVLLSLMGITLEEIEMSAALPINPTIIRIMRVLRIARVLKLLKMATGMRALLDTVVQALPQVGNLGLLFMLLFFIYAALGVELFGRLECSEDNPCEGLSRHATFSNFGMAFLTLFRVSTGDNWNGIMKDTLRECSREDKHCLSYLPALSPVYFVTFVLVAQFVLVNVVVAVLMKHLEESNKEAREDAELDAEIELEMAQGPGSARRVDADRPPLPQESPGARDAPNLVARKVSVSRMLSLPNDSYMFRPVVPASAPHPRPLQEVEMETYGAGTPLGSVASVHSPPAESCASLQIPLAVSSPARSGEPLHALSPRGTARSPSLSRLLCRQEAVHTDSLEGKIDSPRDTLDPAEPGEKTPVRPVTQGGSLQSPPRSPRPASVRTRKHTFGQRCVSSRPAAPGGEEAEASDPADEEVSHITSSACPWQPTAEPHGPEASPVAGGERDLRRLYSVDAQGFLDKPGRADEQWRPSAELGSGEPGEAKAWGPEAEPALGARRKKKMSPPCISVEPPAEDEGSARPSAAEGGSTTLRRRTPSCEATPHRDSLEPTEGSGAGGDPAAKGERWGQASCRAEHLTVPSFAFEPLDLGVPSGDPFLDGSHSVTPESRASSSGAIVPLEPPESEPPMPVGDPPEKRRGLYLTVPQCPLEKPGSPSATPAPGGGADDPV

Row | Compound | IC50 [µM]
1 | CC(C)c1ccc(CC(=O)Nc2ccn(Cc3ccc(Cl)cc3)n2)cc1 [Example 1, N-[1-(4-Chloro-benzyl)-1H-pyrazol-3-yl]-2-(4-isopropyl-phenyl)-acetamide] | 0.014
2 | CN(C)c1ccc(CC(=O)Nc2ccn(Cc3ccc(F)cc3)n2)cn1 [Example 4, 2-(6-Dimethylamino-pyridin-3-yl)-N-[1-(4-fluoro-benzyl)-1H-pyrazol-3-yl]-acetamide] | 0.082
3 | CN(C)c1ccc(CC(=O)Nc2ccn(Cc3ccc(Cl)cc3)n2)cn1 [Example 5, N-[1-(4-Chloro-benzyl)-1H-pyrazol-3-yl]-2-(6-dimethylamino-pyridin-3-yl)-acetamide] | 0.02
4 | CC(C)c1ccc(CC(=O)Nc2ccn(Cc3ccc(F)cc3)n2)cc1 [Example 6, N-[1-(4-Fluoro-benzyl)-1H-pyrazol-3-yl]-2-(4-isopropyl-phenyl)-acetamide] | 0.0066
5 | COc1ccc(Cn2ccc(NC(=O)Cc3ccc(C(C)C)cc3)n2)cc1 [Example 7, 2-(4-Isopropyl-phenyl)-N-[1-(4-methoxy-benzyl)-1H-pyrazol-3-yl]-acetamide] | 0.0079
6 | Cc1ccc(Cn2ccc(NC(=O)Cc3ccc(C(C)C)cc3)n2)cc1 [Example 9, 2-(4-Isopropyl-phenyl)-N-[1-(4-methyl-benzyl)-1H-pyrazol-3-yl]-acetamide] | 0.012
7 | CC(C)c1ccc(CC(=O)Nc2ccn(Cc3ccc(C#N)cc3)n2)cc1 [Example 11, N-[1-(4-Cyano-benzyl)-1H-pyrazol-3-yl]-2-(4-isopropyl-phenyl)-acetamide] | 0.0054
8 | Cc1ccc(Cn2ccc(NC(=O)Cc3ccc(N(C)C)nc3)n2)cc1 [Example 13, 2-(6-Dimethylamino-pyridin-3-yl)-N-[1-(4-methyl-benzyl)-1H-pyrazol-3-yl]-acetamide] | 0.133
9 | COc1ccc(Cn2ccc(NC(=O)Cc3ccc(N(C)C)nc3)n2)cc1 [Example 14, 2-(6-Dimethylamino-pyridin-3-yl)-N-[1-(4-methoxy-benzyl)-1H-pyrazol-3-yl]-acetamide] | 0.65
10 | CN(C)c1ccc(CC(=O)Nc2ccn(Cc3ccc(C#N)cc3)n2)cn1 [Example 15, N-[1-(4-Cyano-benzyl)-1H-pyrazol-3-yl]-2-(6-dimethylamino-pyridin-3-yl)-acetamide] | 0.374
11 | CCc1ccc(Cn2ccc(NC(=O)Cc3ccc(N(C)C)cc3)n2)cc1 [Example 16, 2-(4-Dimethylamino-phenyl)-N-[1-(4-ethyl-benzyl)-1H-pyrazol-3-yl]-acetamide] | 0.01
12 | CC(C)c1ccc(Cn2ccc(NC(=O)Cc3ccc(N(C)C)cc3)n2)cc1 [Example 17, 2-(4-Dimethylamino-phenyl)-N-[1-(4-isopropyl-benzyl)-1H-pyrazol-3-yl]-acetamide] | 0.012
13 | CN(C)c1ccc(CC(=O)Nc2ccn(Cc3ccc(C(C)(C)C)cc3)n2)cc1 [Example 18, N-[1-(4-tert-Butyl-benzyl)-1H-pyrazol-3-yl]-2-(4-dimethylamino-phenyl)-acetamide] | 0.025
14 | CN(C)c1ccc(CC(=O)Nc2ccn(Cc3ccc(F)c(OC(F)(F)F)c3)n2)cc1 [Example 22, 2-(4-Dimethylamino-phenyl)-N-[1-(4-fluoro-3-trifluoromethoxy-benzyl)-1H-pyrazol-3-yl]-acetamide] | 0.005
15 | CN(C)c1ccc(CC(=O)Nc2ccn(Cc3ccc(F)c(C(F)(F)F)c3)n2)cc1 [Example 23, 2-(4-Dimethylamino-phenyl)-N-[1-(4-fluoro-3-trifluoromethyl-benzyl)-1H-pyrazol-3-yl]-acetamide] | 0.0064
16 | CN(C)c1ccc(CC(=O)Nc2ccn(Cc3cc(F)c(F)c(F)c3)n2)cc1 [Example 24, 2-(4-Dimethylamino-phenyl)-N-[1-(3,4,5-trifluoro-benzyl)-1H-pyrazol-3-yl]-acetamide] | 0.013

Results, then the compound that gave them:

Row | IC50 [µM] | Compound
17 | 0.03 | COC(C)c1ccc(CC(=O)Nc2ccn(Cc3ccc(F)cc3)n2)cc1 (racemic) [Example 201, rac-N-[1-(4-Fluoro-benzyl)-1H-pyrazol-3-yl]-2-[4-(1-methoxy-ethyl)-phenyl]-acetamide]
18 | 0.016 | COC(C)c1ccc(CC(=O)Nc2ccn(Cc3ccc(F)c(F)c3)n2)cc1 (racemic) [Example 202, rac-N-[1-(3,4-Difluoro-benzyl)-1H-pyrazol-3-yl]-2-[4-(1-methoxy-ethyl)-phenyl]-acetamide]
19 | 1.26 | COC(C)c1ccc(CC(=O)Nc2ccn(Cc3ccc(C#N)cn3)n2)cc1 (racemic) [Example 203, rac-N-[1-(5-Cyano-pyridin-2-ylmethyl)-1H-pyrazol-3-yl]-2-[4-(1-methoxy-ethyl)-phenyl]acetamide]
20 | 0.066 | COC(C)c1ccc(CC(=O)Nc2ccn(Cc3ccc(F)c(C#N)c3)n2)cc1 (racemic) [Example 319, rac-N-[1-(3-Cyano-4-fluoro-benzyl)-1H-pyrazol-3-yl]-2-[4-(1-methoxy-ethyl)-phenyl]-acetamide]
21 | 0.099 | COC(C)c1ccc(CC(=O)Nc2ccn(Cc3ccc(C#N)cc3)n2)cc1 (racemic) [Example 320, rac-N-[1-(4-Cyano-benzyl)-1H-pyrazol-3-yl]-2-[4-(1-methoxy-ethyl)-phenyl]-acetamide]
22 | 0.036 | N#Cc1ccc(Cn2ccc(NC(=O)Cc3ccc([C@@H]4C[C@H]4C(F)(F)F)cc3)n2)nc1 (racemic) [Example 383, rac-N-[1-(5-Cyano-pyridin-2-ylmethyl)-1H-pyrazol-3-yl]-2-[4-((1R*,2R*)-2-trifluoromethyl-cyclopropyl)-phenyl]-acetamide]
23 | 0.03 | CC1COc2cc(CC(=O)Nc3ccn(Cc4ccc(C#N)cn4)n3)ccc2C1 (racemic) [Example 388, rac-N-[1-(5-Cyano-pyridin-2-ylmethyl)-1H-pyrazol-3-yl]-2-(3-methyl-chroman-7-yl)-acetamide]
24 | 0.0058 | CO[C@H](C)c1ccc(CC(=O)Nc2ccn(Cc3ccc(F)c(F)c3)n2)cc1 (single isomer, unassigned) [Example 232]
25 | 0.0081 | CO[C@@H](C)c1ccc(CC(=O)Nc2ccn(Cc3ccc(F)c(F)c3)n2)cc1 (single isomer, unassigned) [Example 233]
26 | 0.064 | Cc1cc(Cn2ccc(NC(=O)Cc3ccc(N(C)C)cc3)n2)cc(C)c1F [Example 25, 2-(4-Dimethylamino-phenyl)-N-[1-(4-fluoro-3,5-dimethyl-benzyl)-1H-pyrazol-3-yl]-acetamide]
27 | 0.0054 | CN(C)c1ccc(CC(=O)Nc2ccn(Cc3ccc(Cl)c(F)c3)n2)cc1 [Example 26, N-[1-(4-Chloro-3-fluoro-benzyl)-1H-pyrazol-3-yl]-2-(4-dimethylamino-phenyl)-acetamide]
28 | 0.061 | CN(C)c1ccc(CC(=O)Nc2ccn(Cc3ccc(Cl)c(C(F)(F)F)c3)n2)cc1 [Example 27, N-[1-(4-Chloro-3-trifluoromethyl-benzyl)-1H-pyrazol-3-yl]-2-(4-dimethylamino-phenyl)-acetamide]
29 | 0.025 | COc1ccc(Cn2ccc(NC(=O)Cc3ccc(N(C)C)cc3)n2)cc1C(F)(F)F [Example 29, 2-(4-Dimethylamino-phenyl)-N-[1-(4-methoxy-3-trifluoromethyl-benzyl)-1H-pyrazol-3-yl]-acetamide]
30 | 0.0086 | Cc1cc(Cn2ccc(NC(=O)Cc3ccc(N(C)C)cc3)n2)ccc1F [Example 30, 2-(4-Dimethylamino-phenyl)-N-[1-(4-fluoro-3-methyl-benzyl)-1H-pyrazol-3-yl]-acetamide]
31 | 0.004 | CN(C)c1ccc(CC(=O)Nc2ccn(Cc3ccc(F)c(Cl)c3)n2)cc1 [Example 31, N-[1-(3-Chloro-4-fluoro-benzyl)-1H-pyrazol-3-yl]-2-(4-dimethylamino-phenyl)-acetamide]
32 | 0.0076 | Cc1ccc(Cn2ccc(NC(=O)Cc3ccc(N(C)C)cc3)n2)cc1F [Example 32, 2-(4-Dimethylamino-phenyl)-N-[1-(3-fluoro-4-methyl-benzyl)-1H-pyrazol-3-yl]-acetamide]
33 | 0.101 | CN(C)c1ccc(CC(=O)Nc2ccn(Cc3ccc(C#N)cn3)n2)cc1 [Example 33, N-[1-(5-Cyano-pyridin-2-ylmethyl)-1H-pyrazol-3-yl]-2-(4-dimethylamino-phenyl)-acetamide]
34 | 0.091 | CN(C)c1ccc(CC(=O)Nc2ccn(Cc3ccc(Cl)c(OC(F)(F)F)c3)n2)cc1 [Example 34, N-[1-(4-Chloro-3-trifluoromethoxy-benzyl)-1H-pyrazol-3-yl]-2-(4-dimethylamino-phenyl)-acetamide]
